# Test results published in US8497361B2, “Topoisomerase binding probe and method of use” (priority 2010, dated 2013).
# Key:
# F. tularensis GyrB = F. tularensis GyrB (Francisella tularensis subsp. tularensis, UniProt Q5NHE7); test: biochemical; type: binding
# [1] = target: T1, E. coli gyrase A2B2 heterotetramer (Escherichia coli, UniProt P0AES6); test: Gyrase activity assay (supercoiling of relaxed plasmid DNA); type: biochemical; conditions: 50 μM compound, 0.5 μg relaxed DNA, 1 hour at 37° C., agarose gel
# T1 construct: purchased Topogen
# F. tularensis GyrB, sequence (Q5NHE7 1-805): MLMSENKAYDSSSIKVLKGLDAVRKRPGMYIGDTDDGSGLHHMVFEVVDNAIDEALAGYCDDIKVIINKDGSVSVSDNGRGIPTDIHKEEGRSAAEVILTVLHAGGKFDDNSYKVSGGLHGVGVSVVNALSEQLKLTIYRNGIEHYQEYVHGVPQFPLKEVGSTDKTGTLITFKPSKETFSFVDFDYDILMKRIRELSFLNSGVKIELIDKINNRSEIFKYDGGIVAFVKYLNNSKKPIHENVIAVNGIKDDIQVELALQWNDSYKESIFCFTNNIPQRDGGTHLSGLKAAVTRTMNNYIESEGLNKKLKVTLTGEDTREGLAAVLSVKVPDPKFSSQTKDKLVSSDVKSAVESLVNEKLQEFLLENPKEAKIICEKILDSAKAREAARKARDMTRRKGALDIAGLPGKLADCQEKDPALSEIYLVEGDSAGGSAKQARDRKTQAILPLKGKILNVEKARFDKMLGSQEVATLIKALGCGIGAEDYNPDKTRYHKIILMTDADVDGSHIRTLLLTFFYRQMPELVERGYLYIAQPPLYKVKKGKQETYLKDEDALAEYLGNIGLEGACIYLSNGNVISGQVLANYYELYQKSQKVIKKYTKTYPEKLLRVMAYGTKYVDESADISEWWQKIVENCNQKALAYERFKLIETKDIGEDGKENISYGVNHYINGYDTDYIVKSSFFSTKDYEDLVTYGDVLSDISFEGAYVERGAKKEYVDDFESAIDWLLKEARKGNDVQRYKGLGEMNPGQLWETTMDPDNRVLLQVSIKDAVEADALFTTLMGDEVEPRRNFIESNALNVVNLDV
Structure (SMILES),Ki (F. tularensis GyrB) [nM],inhibition of supercoiling of relaxed DNA [1]
CC(=O)[C@]1(O)Cc2c(O)c3c(c(O)c2[C@@H](O[C@H]2C[C@H](N)[C@H](O)[C@H](C)O2)C1)C(=O)c1ccccc1C3=O [idarubicin],480,less clear
COc1cccc2c1C(=O)c1c(O)c3c(c(O)c1C2=O)C[C@@](O)(C(=O)CO)C[C@@H]3O[C@H]1C[C@H](N)[C@H](O)[C@H](C)O1 [doxorubicin],94,inhibit supercoiling to the level of the no gyrase control
COc1cccc2c1C(=O)c1c(O)c3c(c(O)c1C2=O)C[C@@](O)(C(=O)CO)C[C@@H]3O[C@H]1C[C@H](N)[C@@H](O)[C@H](C)O1 [epirubicin],386,inhibit supercoiling to the level of the no gyrase control
COc1cccc2c1C(=O)c1c(O)c3c(c(O)c1C2=O)C[C@@](O)(C(C)=O)C[C@@H]3O[C@H]1C[C@H](N)[C@H](O)[C@H](C)O1 [daunorubicin],444,less clear
